ChEMBL document CHEMBL1127966, “Acyclic NK1 antagonists: Replacements for the benzhydryl group” (Bioorg Med Chem Lett, 1994)

Legend:
[1] = biological target: Substance-P receptor (Homo sapiens, UniProt P25103); assay: Binding affinity of compound was determined from inhibition of [125I]- substance P binding to the hNK1 receptor in CHO cells; format: cell-based
[2] = biological target: T1, Neuromedin-K receptor (Homo sapiens) (UniProt P29371); assay: Binding affinity to Tachykinin receptor 3
T1 sequence (whole entry): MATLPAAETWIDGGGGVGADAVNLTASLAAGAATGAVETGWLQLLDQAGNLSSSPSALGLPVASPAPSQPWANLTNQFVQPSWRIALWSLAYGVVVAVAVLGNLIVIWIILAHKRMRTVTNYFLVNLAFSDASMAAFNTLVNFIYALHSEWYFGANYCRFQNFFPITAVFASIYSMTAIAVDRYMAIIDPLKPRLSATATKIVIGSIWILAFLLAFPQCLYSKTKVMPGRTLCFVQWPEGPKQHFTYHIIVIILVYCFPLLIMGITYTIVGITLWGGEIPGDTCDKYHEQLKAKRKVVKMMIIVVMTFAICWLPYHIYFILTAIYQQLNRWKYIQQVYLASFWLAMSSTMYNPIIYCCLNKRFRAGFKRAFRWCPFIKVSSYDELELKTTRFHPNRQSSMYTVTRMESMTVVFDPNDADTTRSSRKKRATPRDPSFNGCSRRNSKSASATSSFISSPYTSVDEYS

[3] = biological target: T2, Substance-K receptor (Homo sapiens) (UniProt P21452); assay: Binding affinity to Tachykinin receptor 2
T2 sequence (whole entry): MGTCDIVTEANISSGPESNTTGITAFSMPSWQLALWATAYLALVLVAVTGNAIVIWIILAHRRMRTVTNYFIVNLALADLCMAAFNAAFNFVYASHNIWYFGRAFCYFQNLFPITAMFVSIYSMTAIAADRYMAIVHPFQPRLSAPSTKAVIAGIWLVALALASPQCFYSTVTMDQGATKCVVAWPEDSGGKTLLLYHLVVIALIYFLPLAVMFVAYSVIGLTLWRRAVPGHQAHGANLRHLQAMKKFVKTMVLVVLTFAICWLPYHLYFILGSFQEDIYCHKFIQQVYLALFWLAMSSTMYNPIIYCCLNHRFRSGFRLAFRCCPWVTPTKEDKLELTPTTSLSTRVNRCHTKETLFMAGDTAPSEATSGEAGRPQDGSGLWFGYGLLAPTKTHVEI

Sequence of Substance-P receptor (P25103 whole entry): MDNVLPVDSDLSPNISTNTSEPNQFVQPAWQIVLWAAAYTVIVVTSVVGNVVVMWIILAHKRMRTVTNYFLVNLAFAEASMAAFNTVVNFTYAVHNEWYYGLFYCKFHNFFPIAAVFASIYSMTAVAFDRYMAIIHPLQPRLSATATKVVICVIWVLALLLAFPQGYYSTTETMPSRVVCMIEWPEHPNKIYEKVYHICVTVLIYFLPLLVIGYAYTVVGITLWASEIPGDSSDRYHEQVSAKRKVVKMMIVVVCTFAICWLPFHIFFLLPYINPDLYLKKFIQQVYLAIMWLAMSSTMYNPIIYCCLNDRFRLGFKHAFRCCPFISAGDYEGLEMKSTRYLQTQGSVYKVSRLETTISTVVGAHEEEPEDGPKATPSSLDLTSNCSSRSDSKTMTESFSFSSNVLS

Structure (SMILES) | IC50 [1] [nM] | Affinity [2] [µM] | Affinity [3] [µM]
Cc1cc(C)cc(COCC(N)Cc2ccccc2)c1 (centres undefined) | 483 | – | –
Cc1cc(C)cc(COC[C@H](N)c2ccccc2)c1 | 2500 | – | –
Cc1cc(C)cc(COCC(N)C2c3ccccc3CCc3ccccc32)c1 (centres undefined) | 93 | – | –
Cc1cc(C)cc(COCC(N)C2c3ccccc3C=Cc3ccccc32)c1 (centres undefined) | 80 | – | –

Continued by falling IC50 [1], values first:

IC50 [1] [nM] | Affinity [2] [µM] | Affinity [3] [µM] | Structure (SMILES)
1160 | – | – | Cc1cc(C)cc(COCC(N)Cc2cccc3ccccc23)c1 (centres undefined)
55 | > 10 | > 10 | Cc1cc(C)cc(COC[C@@H](N)c2ccccc2)c1
9.3 | – | – | Cc1cc(C)cc(COCC(N)C(c2ccccc2)c2ccccc2)c1 (centres undefined)
